Data taken from US10617664B2, “Brain derived PPARα ligands” (Rush University Medical Center, priority 2015, dated 2020).

Experiments:
[1] = molecular target: T1, PPARα LBD (Homo sapiens, UniProt Q07869); test: TR-FRET PPAR-alpha coactivator assay (Lanthascreen); type: biochemical; conditions: curve fit FIG. 13
T1 construct: GST-tagged recombinant PPARα LBD protein; purchased PV4684
T1 sequence (Q07869 239-466 limits assumed): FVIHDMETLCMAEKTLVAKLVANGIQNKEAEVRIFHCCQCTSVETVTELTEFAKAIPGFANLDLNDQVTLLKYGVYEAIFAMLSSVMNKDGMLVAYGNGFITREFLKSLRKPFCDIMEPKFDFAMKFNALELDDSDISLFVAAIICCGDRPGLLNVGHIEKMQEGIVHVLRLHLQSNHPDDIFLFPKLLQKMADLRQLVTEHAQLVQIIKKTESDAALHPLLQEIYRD
Description: TR-FRET assay was performed using Lanthascreen TR-FRET PPAR-alpha coactivator assay kit (Cat # PV4684). In this assay, different doses of statin drugs were incubated with GST-tagged recombinant PPARα LBD protein, Terbium (Tb)-tagged anti GST antibody and Fluorescein (FL)-tagged PGC1α as directed in the manufacturer's protocol. The entire reaction was set up in corning 384 well plates by an automated robotic injector. Each plate was centrifuged, incubated in a dark place for 30 mins, and then analyzed “molecular devices analyst” machine equipped with dichroic mirror. The excitation wavelength and emission wavelength were set at 340 nm and 540 nm wavelength respectively.

[2] = system: astrocytes; test: MTT cell viability in PPRE-luciferase transfected astrocytes; type: cell-based, mouse; conditions: higher concentrations
Description: Astrocytes plated at 60-70% confluence were transfected with tk-PPREx3-Luc, a PPRE-dependent luciferase reporter construct. After 24 h of transfection, cells were treated with different concentrations of HEX (FIG. 10A), OCT (FIG. 10B) and HMB (FIG. 10C) for 4 h followed by monitoring luciferase activity. Under similar experimental condition, MTT was performed to understand the effect of these ligands on cell viability (FIG. 10D, HEX; FIG. 10E, OCT; FIG. 10F, HMB). Results are mean±SD of three independent experiments. ^ap<0.001 vs. control. Ppara-null astrocytes were transduced with lentivirions containing empty vector (FIG. 10G), FL-Ppara (FIG. 10H), Y314D-Ppara (FIG. 10I), Y464D-Ppara (FIG. 10J), and Y314D/Y464D-Ppara (FIG. 10K) for 48 h followed by transfection with tk-PPREx3-Luc. After 24 h of transfection, cells were treated with different doses of HEX, OCT and HMB for 4 h followed by monitoring luciferase activity. PPRE luciferase activity was assayed in Ppara-null astrocytes transduced with lentivirions containing empty vector (FIG. 10L), FL-Ppara (FIG. 10M), Y314D-Ppara (FIG. 10N), Y464D-Ppara (FIG. 10O), and Y314D/Y464D-Ppara (FIG. 10P) after treatment with different doses of WY14643, fenofibrate, and clofibrate. PPRE luciferase activity was assayed in primary hippocampal neurons transduced with lentivirions containing empty vector (FIG. 10Q), FL-Ppara (FIG. 10R), Y314D-Ppara (FIG. 10S), Y464D-Ppara (FIG. 10T), and Y314D/Y464D-Ppara (FIG. 10U) after treatment with different doses of HEX, OCT and HMB. Results are mean±SD of three independent experiments. ^ap<0.001 vs. control.

[3] = system: CREB; test: Immunoblot of CREB in Ppara-null hippocampal neurons transduced with Ppara constructs; type: cell-based, mouse
Description: (FIG. 17A) Immunoblot analyses followed by densitometric analyses of NR2A (FIG. 17B), GluR1 (FIG. 17C) and CREB (FIG. 17D) were performed in Ppara-null and WT hippocampal neurons treated with 5 μM HEX, 5 μM OCT and 50 μM HMB. Data are mean±SD of three different experiments. ^ap<0.05 versus WT-control. Immunocytochemical analyses of NR2A (FIG. 17E) and GluR1 (FIG. 17F) in WT and Ppara-null hippocampal neurons treated with HEX, OCT and HMB. Hippocampal neurons were transduced with lenti-GFP for 48 h followed by treatment with different ligands. Immunoblot analyses followed by relative densitometric analyses of CREB in Ppara-null hippocampal neurons transduced with lentivirions containing different Ppara constructs followed by treatment with HEX (FIG. 17G-H), OCT (FIG. 17I-J) and HMB (FIG. 17K-L). Bands were scanned and presented as relative to control (FIG. 17H, HEX; FIG. 17J, OCT; FIG. 17L, HMB). Data are mean±SD of three different experiments. ^ap<0.05 vs FLPpara control.
For whole-cell and tissue lysates, samples were homogenized in RIPA buffer containing protease and phosphatase inhibitors (Sigma), passed 10 times through a 26-gauge needle, rotated end over end for 30 min at 4° C., and centrifuged for 10 min at 18,000×g. The supernatant was aliquoted and stored at −80° C. until use. Protein concentrations were determined using a NanoDrop 2000 (Thermo Fisher), and 15-30 μg sample was heat-denatured and resolved on 10% or 12% polyacrylamide-SDS gels, transferred to 0.45 μm nitrocellulose membranes under semidry conditions (15V for 12 min). Membranes were blocked for 1 h with blocking buffer (Li-Cor), incubated with primary antibodies overnight at 4° C. under shaking conditions, washed, incubated with IR-dye-labeled secondary antibodies (1:17,000; Li-Cor) for 45 min at room temperature, washed, and visualized with the Odyssey Infrared Imaging System (Li-Cor). Blots were converted to grayscale and then binary, analyzed using Fiji, and normalized to appropriate loading controls.

EC50 [1] [µM]	SMILES	cytotoxicity (MTT) [2]	expression of CREB ([3]; FL-Ppara)	expression of CREB ([3]; lenti-Y314D-Ppara)	expression of CREB ([3]; lenti-Y464D-Ppara)	expression of CREB ([3]; lenti-Y464D/Y314D-Ppara)
4.36	CCCCCCCCCCCCCCCC(N)=O [HEX, hexadecanamide]	significant level of cytotoxicity	stimulated	only partially restored	remained unable to increase	remained unable to increase
31.6	CCOC(=O)C(C)(C)C(C)O (stereo not drawn) [HMB]	significant level of cytotoxicity	stimulated	only partially restored	remained unable to increase	remained unable to increase
4.31	CCCCCCCCC=CCCCCCCCC(N)=O [OCT, 9-octadecenamide]	significant level of cytotoxicity	stimulated	only partially restored	remained unable to increase	remained unable to increase
